From patent US8187586B2, “Methods of inducing apoptosis in hyperproliferative cells” (Case Western Reserve University, priority 2001, dated 2012)

Experiments:
[1] = test system: LNCaP cells; assay: Western blot of endogenous KChAP (899 antibody) after apoptotic stimulus; format: cell-based, human
From the text: (§1) Antibodies and Western Blotting Two antibodies were used to monitor intracellular levels of KChAP protein in control and Ad/KChAP infected cells. Antibody 899 was raised against a bacterial fusion protein which consisted of the C-terminal 169 amino acids of KChAP (Wible et al, 1998; Kuryshecv et al 2000). It recognizes both endogenous and overexpressed KChAP. Antibody 088 was raised against a peptide in the N-terminus of KChAP which is not present in PIAS3 (SPSPLASIPPTLLTPGTLL-GPKREVDMH, SEQ ID NO. 3). Antibody 088 recognizes only overexpressed, not endogenous, KChAP. Affinity purified antibodies were used in Western blotting. Other antibodies used for Western blotting to detect the following proteins were obtained from commercial sources: p53 (DO-1; Santa Cruz Biotech.), STAT1, STAT3, and cyclins A, B, and D3 (Transduction Labs), actin (clone AC-40, Sigma), phospho-p53 (ser 15) (Cell Signaling Tech. Inc.), PARP (we used two antibodies interchangeably which recognize both intact and cleaved PARP; one from Cell Signaling Inc., and one from Pharmingen), monoclonal Rb (Pharmingen), and p21 (WAF1 Ab1; Oncogene Res. Pdts).
(§2) Cells were lysed in a buffer consisting of 1% Triton-X 100, 150 mM NaCl, 50 mM Tris, 1 mM EDTA, pH 7.5 containing freshly added protease inhibitors (Complete, Roche Mol. Biol.) and the phosphatase inhibitors sodium fluoride (50 mM) and sodium orthovanadate (1 mM) for 30 minutes on ice. Insoluble debris was pelleted at 20,800×g for 10 minutes at 4° C. Lysate protein concentrations were determined by the BCA method (Pierce), and aliquots were boiled in a reducing SDS sample buffer to denature protein. SDS PAGE gels were blotted to PVDF membranes using a semi-dry blotting apparatus. Blots were blocked overnight in 5% milk (Bio-Rad) in PBS-T (PBS plus 0.1% Tween-20) at 4° C. Primary antibodies diluted in blocking buffer were incubated with the blots for one hour at room temperature (RT). Blots were washed with PBS-T and incubated with HRP (horseradish peroxidase)-conjugated secondary antibodies (Amersham Pharmacia) in blocking buffer for 1 hour at RT. Blots were developed with the ECL-Plus kit (Amersham Pharmacia).
(§3) We observed an increase in the amount of endogenous KChAP detected in cells exposed to STS. […] Multiple bands are detected in both cell lysates with the 899 antibody; a 68 kD doublet which is close to the predicted molecular weight of KChAP and PIAS3 and an upper band of about 85 kD. […] The signal then drops to control levels or lower after about 6 hours in LNCaP cells and around 4 to 6 hours in Jurkat cells. This peak in immunoreactivity largely precedes detection of PARP cleavage, a marker for apoptosis. […] There was no change in the 85 kD band. […]

[2] = test system: Jurkat cells; assay: as above; format: cell-based; conditions: for signal of the 68 kD KChAP doublet (899 antibody): STS 1 μM
From the text: as §1, §2, §3

[3] = test system: prostate cancer cells and breast cancer cells versus cardiomyocytes; assay: Sensitivity of cancer versus non-cancerous cells to KChAP overexpression; format: cell-based

## CN[C@@H]1C[C@H]2O[C@@](C)([C@@H]1OC)n1c3ccccc3c3c4c(c5c6ccccc6n2c5c31)C(=O)NC4 [staurosporine]
[1]; LNCaP, STS 1 μM
  signal of the 68 kD KChAP doublet (899 antibody): immunoreactivity increases
  time after which KChAP signal drops to control levels or lower: about 6 hours
[1]; LNCaP, STS 1 μM, listed as STS
  signal of the 68 kD KChAP doublet (899 antibody): increased as early as one hour after the addition of STS
[2]
  KChAP content of Jurkat cells: greatly increases their KChAP content
  apoptosis in Jurkat cells: causes apoptosis
  signal of the 68 kD KChAP doublet (899 antibody): immunoreactivity increases
[2]; listed as STS
  signal of the 68 kD KChAP doublet (899 antibody): increased as early as one hour after the addition of STS

## CC[C@@]1(O)C(=O)OCc2c1cc1n(c2=O)Cc2cc3ccccc3nc2-1 [camptothecin]
[1]; cell line not specified, data not shown
  pattern of KChAP immunoreactivity after apoptotic inducing drug: the same pattern was also obtained

B1: KChAP: potassium channel modulatory protein, human sequence SEQ ID NO:2, overexpressed in cells (protein, listed as Homo sapiens)
chain: MKIKELYRRRFPRKTLGPSDLSLLSLPPGTSPVGSPGPLAPIPPTLLAPGTLLGPKREVDMHPPLPQPVHPDVTMKPLPFYEVYGELIRPTTLASTSSQRFEEAHFTFALTPQQVQQILTSREVLPGAKCDYTIQVQLRFCLCETSCPQEDYFPPNLFVKVNGKLCPLPGYLPPTKNGAEPKRPSRPINITPLARLSATVPNTIVVNWSSEFGRNYSLSVYLVRQLTAGTLLQKLRAKGIRNPDHSRALIKEKLTADPDSEVATTSLRVSLMCPLGKMRLTVPCRALTCAHLQSFDAALYLQMNEKKPTWTCPVCDKKAPYESLIIDGLFMEILSSCSDCDEIQFMEDGSWCPMKPKKEASEVCPPPGYGLDGLQYSPVQGGDPSENKKKVEVIDLTIESSSDEEDLPPTKKHCSVTSAAIPALPGSKGVLTSGHQPSSVLRSPAMGTLGGDFLSSLPLHEYPPAFPLGADIQGLDLFSFLQTESQHYGPSVITSLDEQDALGHFFQYRGTPSHFLGPLAPTLGSSHCSATPAPPPGRVSSIVAPGGALREGHGGPLPSGPSLTGCRSDIISLD
[3]
  sensitivity of cancer cells relative to non-cancerous cells such as cardiomyocytes: about ten times more sensitive
